Assay results reported in patent US20170020900A1, “METHODS FOR SCREENING ANTIMICROBIAL AND ANTIVIRAL COMPOUNDS AND USES THEREOF” (The General Hospital Corporation, priority 2006, published 2017).
≈ marks a conversion by molar mass, not a printed value.

Legend:
DAY185 = details: Candida strain DAY185; cited from earlier work
C. albicans strain MLR62 [1] = experiment: C. elegans liquid medium killing assay with established antifungals; format: in vivo, Candida albicans
Experimental: (§1) Candida strains were inoculated in 2 ml of YPD and grown at 30° C. for 24 hours. Lawns were prepared by spreading 10 μl of each culture on 35 mm tissue-culture plates (Falcon) containing solid brain heart infusion (BHI) media (Difco) with kanamycin (45 μg/ml), ampicillin (100 μg/ml), and streptomycin (100 μg/ml). The plates were incubated at 30′C for 24 hours followed by 25° C. for 24 hours. glp-4; sek-1 and glp-4 worms were grown at 15° C. until they reached the L2 stage, and then they were transferred to 25° C. for 24 h. N2 wild-type worms were grown at 15° C. for 72 h, until they reached the L4 stage. Approximately 100 worms were picked onto each lawn and allowed to feed for 30 minutes to 2 hours. The worms were washed off the plates with M9 buffer and allowed to crawl on unseeded BHI plates to remove yeast cells from their cuticles. Roughly 70-80 worms were then picked to wells in a six-well microtiter dish that contained 1.5 ml liquid medium of 79% M9 buffer, 20% BHI, 2 μM cholesterol and 90 μg/ml kanamycin. The plates were incubated at 25° C. overnight and then examined at 24-hour intervals for survival.
To develop a system that allows high throughput screening for antifungal compounds, we first evaluated whether established antifungals prolong the survival of nematodes infected with Candida spp. For this, we used different C. albicans isolates as well as non-albicans strains, including those used as reference strains by clinical microbiology laboratories ([…], N. C. F. C. L. Methods for antifungal disk diffusion susceptibility testing of yeasts; approved guideline M44-A. (National Committee for Clinical Laboratory Standards, Wayne, Pa., 2004)).

C. albicans MLR62 = experiment: Fungal burden within C. elegans (cfu per worm); format: in vivo, Candida albicans; details: for concentration of Candida cfu in the nematodes: data not shown
Experimental: The number of C. albicans colony forming units in C. elegans was quantified based on the protocol detailed by Tang et al., Infect. Immun. 73:8219 (2005) and Garsin et al., Proc. Natl. Acad Sci. USA 98:10892 (2001) with a few modifications. C. albicans strain MLR62 lawns were prepared on BHI as described above. C. elegans glp-4; sek-1 worms were exposed to the lawns for 30 minutes and then moved to liquid media and incubated at 25° C. in the presence or absence of antifungal agents. At appropriate time points, 3 groups of 10 worms each were washed twice in 8 μl drops of M9 buffer on BHI agar plates, in order to remove surface Candida. Each group of 10 worms was then disrupted using a Pellet Pestle Motor (Kontes) and plated on YPD agar containing kanamycin (45 μg/ml), ampicillin (100 μg/ml), and streptomycin (100 μg/ml). The plates were incubated for 48 hours at 30′C and colonies were counted.

C. krusei ATCC#6258 [2] = details: cited from earlier work
[3] = system: C. parapsilosis ATCC#22019; details: cited from earlier work
E. faecalis = experiment: Bacterial colonization of the nematode intestine (CFU per worm); format: in vivo, Enterococcus faecalis; details: 100% = 3.28 × 10^4 CFU/worm
Experimental: Infected worms were washed three times with M9 buffer containing 1 mM sodium azide. Approximately 10 worms were transferred to a 2 ml microcentrifuge tube and the volume was brought to 250 μl. Fifty μl of buffer was removed and plated to determine the number of external CFU.

[4] = system: E. faecalis strain MMH594; experiment: C. elegans-E. faecalis liquid infection (curing) assay in 96-well plates, worm survival; format: in vivo, Enterococcus faecalis; details: glp-4, sek-1 C. elegans infected with E. faecalis MMH594
Experimental: (§2) Worm survival was scored manually after 6 days of incubation. […] MICs were determined against E. faecalis strain MMH594 using 2-fold dilution in BHI media according to the broth microdilution protocol of the NCCLS (CLSI) (National Committee for Clinical Laboratory Standards, Approved Standard M7-A5; Methods for Dilution Antimicrobial Susceptibility Tests for Bacteria that Grow Aerobically, Villanova, Pa.: NCCLS (2000)).

[5] = system: E. faecalis strain MMH594; experiment: MIC, 2-fold broth microdilution in BHI media (NCCLS); format: cell-based, Enterococcus faecalis; details: E30 value is at its aqueous solubility limit
Experimental: as §2

C. krusei ATCC#6258 [6] = format: in vivo; details: fluconazole 32 μg/ml, fluconazole-resistant strain
Experimental: as §1
To develop a system that allows high throughput screening for antifungal compounds, we first evaluated whether established antifungals prolong the survival of nematodes infected with Candida spp. […]

C. albicans ATCC#90028 = details: cited from earlier work
C. albicans strain MLR62 [7] = experiment: C. elegans-Candida killing assay, compound library screen in 96-well plates; format: in vivo, Candida albicans; details: positive control of the screen; <25% alive in PBS
Experimental: For testing the efficacy of chemical compounds, C. albicans strain MLR62 was inoculated into 2 ml of YPD and grown at 30° C. for 24 hours; 10 μl of the culture was spread on 35-mm tissue-culture plates (Falcon) containing brain heart infusion (BHI) agar (Difco) with kanamycin (45 μg/ml), ampicillin (100 μg/ml), and streptomycin (100 μg/ml). The plates were incubated at 30° C. for 24 hours. C. elegans animals at the L4 developmental stage (grown as detailed above under C. elegans liquid medium killing assays) were transferred from a lawn of E. coli HB101 onto C. albicans lawns on BHI medium, incubated at 25° C. for 30 minutes, and then pipetted in 50 μl into 96-well plate wells that contained 100 μl liquid media (79% of M9 buffer, 20% BHI media, 2 μM cholesterol and 90 μg/ml kanamycin). C. elegans glp-4; sek-1 nematodes were pipetted into 96-well plates that contained compounds from chemical libraries. Library 1361 was assembled by Biomol and contains well-characterized compounds that affect many different aspects of cellular pathways. The NINDS custom collection (plates 501-503) was put together by MicroSource Discovery Systems for the National Institute of Neurological Disorders and Stroke (NINDS), the Huntington's Disease Society of America (HDSA), the Amyotrophic Lateral Sclerosis (ALS) Association, and the Hereditary Disease Foundation (HDF). It mostly contains FDA approved drugs. The Prestwick library (plate 1569) contains compounds that are known to be safe and bioactive in humans. The majority of the compounds are marketed drugs.
On day 6, nematodes were evaluated for survival, filament formation and optical density. The plates were incubated at 25° C. and examined on day 6 for survival with a Nikon SMZ645 dissecting microscope. In addition, images were obtained using a CellWorx High Content Cell Analysis System (Applied Precision) at 4× magnification. Dead worms were counted but not removed. […] Each compound was also scored by the number of dead worms in the well that developed hyphea. […] Compounds were categorized as having a minimal effect on filament formation if 25-75% of the dead worms developed hyphea.
Approximately 25 nematodes were used to analyze each chemical compound tested. Two controls were used in all plates. […] In this pilot screen, we considered a compound as a “hit” when survival in the compound well with was 50% and above of the median survival of the control wells. Depending on the compound library, the final concentration of the compounds was 33.33 μg/ml, 13.33 μg/ml, or […].

[8] = caspofungin 8 μg/ml, amphotericin B 16 μg/ml, fluconazole 32 μg/ml, FIG. 17A

Compound | MIC (DAY185) | prolongation of nematode survival (C. albicans strain MLR62 [1]; in vivo) | concentration of Candida cfu in the nematodes (C. albicans MLR62) | MIC (C. krusei ATCC#6258 [2]) | MIC [3] | Amt. Colonization vs untreated (E. faecalis) | Therapeutic Concentration [4] | Fold Survival vs untreated ([4]; untreated = 24% survival) | MIC [5] | prolongation of nematode survival (C. albicans strain MLR62 [1]; [8]) | effect on nematode survival (C. krusei ATCC#6258 [6]) | lowest effective concentration (effective at concentrations as low as) (C. albicans strain MLR62 [1]; nematode survival, P<0.0001) | MIC (C. albicans ATCC#90028) | nematode survival at day 6 (C. albicans strain MLR62 [7]) | fungal burden, average colony-forming units (C. albicans MLR62; 8 μg/ml, untreated 170.8±63.5 cfu per worm, P<0.001)
C[C@@H]1[C@H](O)[C@@H](C)/C=C/C=C/C=C/C=C/C=C/C=C/C=C/[C@H](O[C@@H]2O[C@H](C)[C@@H](O)[C@H](N)[C@@H]2O)C[C@@H]2O[C@](O)(C[C@@H](O)C[C@@H](O)[C@H](O)CC[C@@H](O)C[C@@H](O)CC(=O)O[C@H]1C)C[C@H](O)[C@H]2C(=O)O [amphotericin B] | 0.5 µg/mL (≈ 0.541 µM) | effective | significantly decreased | MIC: 2 μg/ml for amphotericin B^d, | MIC: 2 μg/ml for amphotericin B^d, | – | – | – | – | – | – | – | – | – | –
O=c1oc2ccccc2c(O)c1/C(=C/C(=N/Nc1ccccc1)c1ccc(-c2ccc(Br)cc2)cc1)c1ccccc1 [Compound G1] | – | – | – | – | – | 6% | 25 µg/mL | 3.3 | 31.3 µg/mL (≈ 51 µM) | – | – | – | – | – | –
OC(Cn1cncn1)(Cn1cncn1)c1ccc(F)cc1F [fluconazole] | 2 µg/mL (≈ 6.53 µM) | – | significantly decreased | 32 µg/mL (≈ 104 µM) | 2 µg/mL (≈ 6.53 µM) | – | – | – | – | effective | no effect | – | – | – | –
CC[C@H](C)C[C@H](C)CCCCCCCCC(=O)N[C@H]1C[C@@H](O)[C@@H](NCCN)NC(=O)[C@@H]2[C@@H](O)CCN2C(=O)[C@H]([C@H](O)CCN)NC(=O)[C@H]([C@H](O)[C@@H](O)c2ccc(O)cc2)NC(=O)[C@@H]2C[C@@H](O)CN2C(=O)[C@H]([C@@H](C)O)NC1=O [caspofungin] | 2 µg/mL (≈ 1.83 µM) | – | – | 0.5 to 2 µg/mL | 0.5 to 2 µg/mL | – | – | – | – | effective | – | 1 µg/mL | 1 μg/ml for caspofungin | > 75% | 0.3±0.2 cfu per worm
